Results published in US7935722B2 (Eli Lilly and Company, priority 2005, dated 2011).
Read-outs that look alike come from different tables or passages of the source.

Legend:
[1] = target: T1, human AR (androgen receptor) (Homo sapiens, UniProt P10275); experiment: Steroid hormone nuclear receptor binding assay, AR binding
T1 construct: expressed in transfected cells; host or cells: 293 cells (293-AR lysate)
T1 sequence (P10275 1-920): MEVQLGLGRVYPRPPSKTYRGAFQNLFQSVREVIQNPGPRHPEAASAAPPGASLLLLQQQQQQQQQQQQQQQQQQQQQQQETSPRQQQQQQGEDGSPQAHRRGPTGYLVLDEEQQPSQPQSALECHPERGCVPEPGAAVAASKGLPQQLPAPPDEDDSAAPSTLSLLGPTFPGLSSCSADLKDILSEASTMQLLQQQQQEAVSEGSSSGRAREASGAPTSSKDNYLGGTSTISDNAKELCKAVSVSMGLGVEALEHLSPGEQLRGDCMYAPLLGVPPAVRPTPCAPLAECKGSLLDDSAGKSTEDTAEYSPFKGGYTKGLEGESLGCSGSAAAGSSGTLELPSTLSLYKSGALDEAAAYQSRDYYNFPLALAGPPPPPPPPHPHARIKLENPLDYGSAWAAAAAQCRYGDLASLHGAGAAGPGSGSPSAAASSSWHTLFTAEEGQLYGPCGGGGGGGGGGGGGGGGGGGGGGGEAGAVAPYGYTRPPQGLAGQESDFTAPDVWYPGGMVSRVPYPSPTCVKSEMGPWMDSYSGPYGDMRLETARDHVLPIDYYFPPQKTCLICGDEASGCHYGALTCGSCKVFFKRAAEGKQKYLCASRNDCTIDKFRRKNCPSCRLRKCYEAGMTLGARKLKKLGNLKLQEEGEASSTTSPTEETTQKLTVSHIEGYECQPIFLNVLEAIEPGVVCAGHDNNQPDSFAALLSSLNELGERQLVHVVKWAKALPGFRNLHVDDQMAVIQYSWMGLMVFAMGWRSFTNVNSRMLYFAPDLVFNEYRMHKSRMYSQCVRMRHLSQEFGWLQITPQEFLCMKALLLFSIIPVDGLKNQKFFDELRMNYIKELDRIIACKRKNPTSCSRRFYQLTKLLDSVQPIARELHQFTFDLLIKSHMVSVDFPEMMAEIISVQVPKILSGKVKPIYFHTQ
Description: Cell lysates from 293 cells overexpressing human GR (glucocorticoid receptor), AR (androgen receptor), MR (mineralocorticoid receptor) or PR (progesterone receptor) are used for competition binding assays to determine Ki values for test compounds. […] Competing compounds are added at various concentrations ranging from about 0.01 nM to 10 μM. Non-specific binding is determined in the presence of 500 nM dexamethasone for GR binding, 500 nM aldosterone for MR binding, or 500 nM methyltrienolone for AR and PR binding. The binding reaction (140 μl) is incubated for overnight at 4° C., then 70 μl of cold charcoal-dextran buffer (containing per 50 ml of assay buffer, 0.75 g of charcoal and 0.25 g of dextran) is added to each reaction. Plates are mixed 8 minutes on an orbital shaker at 4° C. Plates are then centrifuged at 3,000 rpm at 4° C. for 10 minutes. An aliquot of 120 μl of the mix is transferred to another 96-well plate and 175 μl of Wallac Optiphase “Hisafe 3” scintillation fluid is added to each well. Plates are sealed and shaken vigorously on an orbital shaker. After an incubation of 2 hrs, plates are read in a Wallac Microbeta counter. […] The Kd for ^3H-dexamethasone for GR binding, ^3H-methyltrienolone for AR binding, ^3H-aldosterone for MR binding, or ^3H-methyltrienolone for PR binding, is determined by saturation binding. The IC50 values for test compounds are converted to Ki using Cheng-Prusoff equation and the Kd determined by saturation binding assay. […]

[2] = target: T2, human androgen receptor (AR) (Homo sapiens, UniProt P10275); experiment: C2C12 AR/ARE reporter assay; assay type: cell-based
T2 construct: expressed in transfected cells; host or cells: mouse myoblast C2C12 cells, transiently co-transfected
T2 sequence (P10275 1-920): T1 sequence (P10275 1-920)
Description: As an indicator of agonist activity in muscle tissue, the C2C12 AR/ARE reporter assay is performed. Briefly, mouse myoblast C2C12 cells are co-transfected using FuGENE™. […] Cells are transfected in T150 cm^2 flasks in DMEM media with 4% or 10% Fetal Bovine Serum […]. After a 5 hour incubation, transfected cells are trypsinized, plated in 96 well dishes in DMEM media containing 10% charcoal-stripped FBS, incubated for 2 h and then exposed to various concentrations of test compounds ranging from about 0.01 nM to 10 μM. After 48 h of incubations with compounds, cells are lysed and luciferase activity is determined using standard techniques. Data is fit to a 4 parameter-fit logistics to determine EC50 values. The % efficacy is determined versus maximum stimulation obtained with 10 nM methyltrienolone. […]

[3] = average of n trials, read-out: AR binding Ki
[4] = C2C12 AR/ARE reporter assay, average of n trials, read-out: C2C12 % Efficacy
[5] = C2C12 AR/ARE reporter assay, average of n trials, read-out: C2C12 EC50
[6] = C2C12, read-out: C2C12 % Efficacy

Row | Structure (SMILES) | Ki [1, 3] [nM] | Emax [2, 4] [%] | EC50 [2, 5] [nM] | Ki [1] [nM] | EC50 [2] [nM] | Emax [2, 6] [%]
1 | CC(C)C(=O)NC1CCc2c(c3cc(C#N)ccc3n2Cc2ccsc2)C1 (stereo not drawn) [Example 157, N-(6-Cyano-9-thiophen-3-ylmethyl-2,3,4,9-tetrahydro-1H-carbazol-3-yl)-isobutyramide] | 5.2 | 72.3 | 3 | – | – | –
2 | CC(C)C(=O)NC1CCc2c(c3cc(C#N)ccc3n2Cc2cscn2)C1 (stereo not drawn) [Example 147, N-(6-Cyano-9-thiazol-4-ylmethyl-2,3,4,9-tetrahydro-1H-carbazol-3-yl)-isobutyramide] | – | – | – | 29.2 | 79.7 | 102
3 | CN(C)S(=O)(=O)NC1CCc2c(c3cc(C#N)ccc3n2Cc2cccc(F)c2)C1 (stereo not drawn) [Example 213, N-[6-Cyano-9-(3-fluoro-benzyl)-2,3,4,9-tetrahydro-1H-carbazol-3-yl]-N′,N′-dimethylmethanesulfamide] | – | – | – | 3.2 | 40.2 | 95.4
4 | CCCOc1ccc2c(c1)c1c(n2Cc2cccc(F)c2)CCC(NC(=O)C(C)C)C1 (stereo not drawn) [Example 95, N-[9-(3-Fluoro-benzyl)-6-propoxy-2,3,4,9-tetrahydro-1H-carbazol-3-yl]-isobutyramide] | – | – | – | 12.4 | 18.3 | 79.6
5 | Cc1nc(Cn2c3c(c4cc(C=O)ccc42)C[C@H](NC(=O)C(C)C)CC3)cs1 [Example 211, (R)-N-[6-Formyl-9-(2-methyl-thiazol-4-ylmethyl)-2,3,4,9-tetrahydro-1H-carbazol-3-yl]-isobutyramide] | – | – | – | 43.7 | 86.7 | 88.4
6 | COC(=O)c1ccc2c(c1)c1c(n2Cc2cccc(F)c2)CC[C@@H](NC(=O)C(C)C)C1 [Example 187, (R)-9-(3-fluorobenzyl)-6-isobutyrylamino-6,7,8,9-tetrahydro-5H-carbazole-3-carboxylic acid methyl ester] | – | – | – | 2.3 | 2.4 | 77.8
7 | Cc1nc(-c2ccc3c(c2)c2c(n3Cc3cccc(F)c3)CC[C@@H](NC(=O)C(C)C)C2)sc1C [Example 129] | – | – | – | 196 | 73.6 | 65.5
8 | CC(C)C(=O)NC1CCc2c(c3cc(C#N)ccc3n2Cc2cccc(Br)c2)C1 (stereo not drawn) [Example 86] | – | – | – | 2.6 | 36.3 | 93.9
9 | Cc1csc(-c2ccc3c(c2)c2c(n3Cc3cccc(F)c3)CC[C@@H](NC(=O)C(C)C)C2)n1 [Example 128, (R)-N-[9-(3-Fluorobenzyl)-6-(4-methylthiazol-2-yl)-2,3,4,9-tetrahydro-1H-carbazol-3-yl]isobutyramide] | – | – | – | 43 | 236 | 72.5
10 | O=C(N[C@@H]1CCc2c(c3cc(/C=N/O)ccc3n2Cc2cccc(F)c2)C1)C1CC1 [Example 203, (R)-Cyclopropanecarboxylic acid[9-(3-fluoro-benzyl)-6-(hydroxyimino-methyl)-2,3,4,9-tetrahydro-1H-carbazol-3-yl]-amide] | 12.3 | 73.1 | 20.2 | – | – | –
11 | CC(C)C(=O)NC1CCc2c(c3cc(Cl)ccc3n2Cc2cccc(Br)c2)C1 (stereo not drawn) [Example 81] | – | – | – | 11.3 | 94 | 81.9
12 | CC(C)C(=O)NC1CCc2c(c3cc(OC(F)(F)F)ccc3n2Cc2cccc(F)c2)C1 (stereo not drawn) [Example 166] | – | – | – | 5.3 | 6.2 | 81.1
13 | CC(C)C(=O)N[C@H]1CCc2c(c3cc(C#N)ccc3n2Cc2ccccc2N)C1 (single isomer, unassigned) [Example 111, S-N-[9-(2-Amino-benzyl)-6-cyano-2,3,4,9-tetrahydro-1H-carbazol-3-yl]-isobutyramide] | – | – | – | 127 | 55.2 | 111
14 | COc1cccc(Cn2c3c(c4cc(F)ccc42)CC(NC(=O)C(C)C)CC3)c1 (stereo not drawn) [Example 10] | – | – | – | – | – | 40.4
15 | COc1ccc2c(c1)c1c(n2Cc2ccccc2OC)CCC(NC(=O)C(C)C)C1 (stereo not drawn) [Example 72] | – | – | – | – | – | 66.4
16 | COC(=O)N[C@@H]1CCc2c(c3cc(C#N)ccc3n2Cc2cccc(F)n2)C1 [Example 186, (R)-[6-Cyano-9-(6-fluoro-pyridin-2-ylmethyl)-2,3,4,9-tetrahydro-1H-carbazol-3-yl]-carbamic acid methyl ester] | – | – | – | 7.1 | 17.4 | 103
17 | CC(C)C(=O)NC1CCc2c(c3cc(C#N)ccc3n2Cc2nccs2)C1 (stereo not drawn) [Example 149, N-(6-Cyano-9-thiazol-2-ylmethyl-2,3,4,9-tetrahydro-1H-carbazol-3-yl)-isobutyramide] | 18 | 91.4 | 17.6 | – | – | –
18 | O=Cc1ccc2c(c1)c1c(n2Cc2ccccn2)CCC(NC(=O)C2CC2)C1 (stereo not drawn) [Example 206] | – | – | – | 99.2 | 206 | 96.1
19 | N#Cc1ccc2c(c1)c1c(n2Cc2cccc(F)c2)CCC(NS(=O)(=O)C2CC2)C1 (stereo not drawn) [Example 177, Cyclopropanesulfonic acid[6-cyano-9-(3-fluoro-benzyl)-2,3,4,9-tetrahydro-1H-carbazol-3-yl)-amide] | – | – | – | 3.8 | 102 | 75.2
20 | CC(C)C(=O)NC1CCc2c(c3cc(C#N)ccc3n2Cc2ccccc2N)C1 (stereo not drawn) [Example 109, N-[9-(2-Amino-benzyl)-6-cyano-2,3,4,9-tetrahydro-1H-carbazol-3-yl]-isobutyramide] | – | – | – | 15.9 | 2.3 | 76.9
21 | CO/N=C/c1ccc2c(c1)c1c(n2Cc2cccc(F)c2)CC[C@@H](NC(=O)C(C)C)C1 [Example 201, (R)-N-[9-(3-Fluorobenzyl)-6-(methoxyimino-methyl)-2,3,4,9-tetrahydro-1H-carbazol-3-yl]-isobutyramide] | 2.9 | 79.9 | 5 | – | – | –
22 | CC(C)C(=O)NC1CCc2c(c3cc(Cl)ccc3n2Cc2ccccc2O)C1 (stereo not drawn) [Example 101, N-[6-Chloro-9-(2-hydroxy-benzyl)-2,3,4,9-tetrahydro-1H-carbazol-3-yl]-isobutyramide] | – | – | – | 5.2 | 4.1 | 65.3
23 | O=C(NC1CCc2c(c3cc(OC(F)(F)F)ccc3n2Cc2cccc(F)c2)C1)C1CC1 (stereo not drawn) [Example 167] | – | – | – | 7.8 | 13.7 | 82.4
24 | COc1ccc2c(c1)c1c(n2Cc2ccc(F)cc2)CCC(NC(=O)C(C)C)C1 (stereo not drawn) [Example 80] | – | – | – | – | – | 59.9
25 | CC(C)C(=O)NC1CCc2c(c3cc(C#N)ccc3n2Cc2cccc([N+](=O)[O-])c2)C1 (stereo not drawn) [Example 88, N-[6-cyano-9-(3-nitro-benzyl)2,3,4,9-tetrahydro-1H-carbazol-3-yl]-isobutyramide] | – | – | – | – | – | 96.1
26 | COC(=O)c1cccc(Cn2c3c(c4cc(Cl)ccc42)CC(NC(=O)C(C)C)CC3)c1 (stereo not drawn) [Example 84] | – | – | – | – | – | 32.9
27 | COc1ccc(Cn2c3c(c4cc(OC)ccc42)CC(NC(=O)C(C)C)CC3)cc1 (stereo not drawn) [Example 74] | – | – | – | – | – | 22.6
